Measured values from EPA's aquatic toxicity sets.
Several values for one entry are separate records, joined by “and”; a condition that tells them apart may be missing. Equal entries are not always repeated.

What follows are compounds tested on Tetrahymena pyriformis (assay: 48 h IGC50 (-log10 mol/L); higher = more toxic).

SMILES | 48 h IGC50 (-log10 mol/L)
CC(C)c1cccc(O)c1 | 3.61
COC(=O)CCBr | 4.03
COc1ccc([N+](=O)[O-])cn1 | 2.99
CCCCCCc1ccc(O)cc1O | 4.8
CC(=O)C(Cl)Cl | 3.64
CCOC(=O)c1ccc([N+](=O)[O-])cc1 | 3.71
CC(C)OC(=O)CC#N | 2.05
CC#CCO | 2.13
NCCc1ccccn1 | 2.26
N#Cc1ccc(Cl)cc1 | 3
S=C=NCCCN=C=S | 5.72 and 5.74
CCCCOC(=O)CC | 3.17
CCCCCCCS | 4.02
CCOC(=O)C[C@H](C)O | 1.47
N#CCCC#N | 1.18
OCc1ccccc1O | 2.05
OCCCCCCCCCCO | 3.22
CCOC(=O)C(C)C | 1.73
CCCCCCOC(C)=O | 2.99
Clc1cc(Cl)cc(Cl)c1 | 3.87
Nc1cc(Cl)c(Cl)cc1[N+](=O)[O-] | 4.66
O=C(Oc1ccccc1)c1ccccc1 | 4.35
O=[N+]([O-])c1c(Cl)cc(Cl)cc1Cl | 4.43
CC(=O)c1ccc(C)o1 | 2.17

SMILES | 48 h IGC50 (-log10 mol/L)
CCCCC(C(=O)OCC)C(=O)OCC | 3.56
O=[N+]([O-])c1ccncc1 | 3.41
CCC(N)=O | 0.91
C=C(C)C(=O)OCCCCCC | 4.09
CCOC(=O)CCBr | 3.13
C/C=C/C(=O)OC(C)(C)C | 2.36
NC(=O)CCCl | 1.41
Oc1ccc(Cl)c(Cl)c1 | 4.75
C=COC(=O)CCCCC | 3.08
OCC#Cc1ccccc1 | 3.07
O=C(O)c1c(Cl)cc(Cl)cc1Cl | 2.59
O=Cc1ccc(Cl)s1 | 3.62
NCC(O)CN | 1.57
CC(=O)CCc1ccc(O)cc1 | 2.5
CCCCC(O)CC (centres undefined) | 2.51
CC(Br)C#N (centres undefined) | 3.63
NCCc1ccc(Cl)cc1 | 3.14
NC(=O)c1ccco1 | 1.56
O=C(O)CCCC(=O)O | 2.36
Cc1cnc2ccccc2n1 | 3.02
OCC(c1ccccc1)c1ccccc1 | 3.65
CCCc1ccc(O)cc1 | 3.64
CCS(=O)(=O)c1ccccc1 | 2.21
OCCCCc1ccccc1 | 3.12

SMILES | 48 h IGC50 (-log10 mol/L)
COC(=O)c1ccc(OC)cc1O | 3.62
O=[N+]([O-])c1cccc2ncccc12 | 3.39
O=Cc1cccc2ccccc12 | 3.42
O=C1C=CCC1 | 3.64
C/C=C(\C)C(=O)OC | 2.38
CCCCCCCC=CCO | 4.13
Oc1c(Cl)cc(F)cc1Cl | 3.8
CCCCCC(C)O (centres undefined) | 2.53
CC1CCOC1=O (centres undefined) | 1.81
COc1cccc(C=O)c1 | 3.23
O=C(OCc1ccccc1)c1ccc(O)cc1 | 4.55
O=Cc1cc(O)ccc1O | 3.28
C=COC(=O)CCCCCCC | 2.7
CCCCC(=O)Cl | 2.65
CC(C)(C)CCO | 2.26
CCCCCCCCCC=CCO | 5.09
CCC#CCC(C)O (centres undefined) | 2.38
CCCCCOc1ccc(O)cc1 | 4.36
CCc1cccc(O)c1 | 3.29
Cc1nc2ccccc2nc1C | 3.25
C#CCCCCO | 1.71
CCOC(=O)C(C)Br (centres undefined) | 4.06
CCCN=C=S | 4.69
O=C(c1ccccc1)c1ccc(Br)cc1 | 4.26

SMILES | 48 h IGC50 (-log10 mol/L)
NCCCCCO | 1.24
OCCCCCc1ccccc1 | 3.42
OCCBr | 2.15
CCCC/C=C/C=O | 4.05
ClC(Cl)c1ccccc1 | 3.11
CC(=O)c1ccc(C#N)cc1 | 2.63
OCC(Br)(Br)Br | 3.11
C=CC(=O)N(C)C | 1.76
Brc1ccsc1 | 2.96
CC1=CCCC1=O | 2.17
C/C=C/C(=O)OCCCC | 2.84
O=Cc1cc(Cl)cc(Cl)c1Cl | 4.72
Nc1ccc(C(=O)c2ccccc2)cc1 | 3.68
CCOC(=O)c1ccc(Br)cc1 | 4.33
CCCOC(=O)c1ccccc1C(=O)OCCC | 3.98
CCC#CC(=O)OCC | 3.82
CC(C)(C)c1ccc(O)cc1 | 3.91
N#Cc1cccc(O)c1 | 2.94
CC(=O)O[C@@H]1C[C@@H]2CC[C@@]1(C)C2(C)C | 3.68
CCCCCC(O)CC (centres undefined) | 2.94
CCCCCCCCCCOC(C)=O | 4.88
OCCCCCCCl | 2.73
OCc1ccccc1F | 2.33
CC(=O)OCCCCCBr | 3.29

SMILES | 48 h IGC50 (-log10 mol/L)
CCCC(CO)CCC | 3.13
CCN(C)C | 2.09
CCCCCCCCCOC(=O)c1ccc(O)cc1 | 5.63
CC(C)(C)c1ccc(N)cc1 | 3.36
Cc1ccc(Cl)c(N)c1Cl | 3.69
CCCCCCC=CCO | 3.77
O=C1CCC(=O)CC1 | 1.33
CCCCCC#CC(=O)OCC | 4.24
O=C(CBr)c1ccc2ccc3cccc4ccc1c2c34 | 5.39
OC(CBr)CBr | 3.57
CCSCC | 2.02
CCc1cccc(CC)c1N | 3.31
Oc1ccc(O)c(O)c1 | 3.44
O=[N+]([O-])c1ccccc1CO | 2.85
C=CCOC(=O)CCC | 2.37
CCCCC(CC)COC(=O)c1ccc(O)cc1 (centres undefined) | 5.51
Cc1c(N)ccc(O)c1C | 4.44
CCOC(=O)CCCCCC(=O)OCC | 3.41
O=[N+]([O-])c1cc(F)ccc1F | 3.33
CCCCCC(N)=O | 2.09
CC(C)(C)C(N)=O | 1.52
CCC(Cl)C(N)=O (centres undefined) | 1.78
OCCCCCCc1ccccc1 | 3.87
N#CC(Cl)Cl | 3.97

SMILES | 48 h IGC50 (-log10 mol/L)
COc1ccc(N)cc1O | 3.45
CCC(C)C(N)CO (centres undefined) | 2.34
CC(=O)c1ccc(O)cc1C | 3.19
CCN(CC)C(C)=O | 1.46
CC(=O)CCC(C)=O | 1.6
CCOC(=O)CCCC(=O)CC(=O)OCC | 2.62
CC(C)C(Br)C(=O)O (centres undefined) | 2.45
C#CCC(O)CC (centres undefined) | 1.6
OCc1ccc(-c2ccccc2)cc1 | 3.92
O=[N+]([O-])c1ccc(Cl)nc1 | 3.8
CCCCCOC=O | 2.22
CCCC(Br)C(=O)O (centres undefined) | 2.96
O=Cc1ccc2c(c1)Cc1ccccc1-2 | 4.5
CCOc1ccc(O)cc1 | 3.01
C=CC(=O)NCNC(=O)C=C | 2.48
CN(C)Cc1cc(CN(C)C)c(O)c(CN(C)C)c1 | 2.48
CCOC(=O)C(Cl)C(=O)OCC | 3.63
CCCCCCOC=O | 2.62
O=C(CBr)c1ccsc1 | 5.22
